Measurements published in EP0034120A1, “Derivatives of phenoxy-phenoxy-carboxylic acids” (CIBA-GEIGY AG, priority 1980, dated 1981).

Assays:
Format in all cases: in vivo
Reis = assay: Herbicidal action, pre-emergent application (greenhouse); set-up: key: 1 Pflanze abgestorben; 2-4 schwere Schädigung; 3: 2-4 schwere Schädigung; 2-4 schwere Schädigung; 5, 6 mittlere Schäden; 5, 6 mittlere Schäden; 7, 8 leichte Schäden; 7, 8 leichte Schäden; 9 Pflanze gedeiht normal, wie unbehandelte Kontrollpflanze; conditions: after 3 weeks
Description: (§1) wurde durchfolgende Versuche ermittelt: Herbizide Wirkung bei Applikation der Wirkstoffe vor dem Auflaufen der Pflanzen (pre-emergent) Im Gewächshaus werden Pflanzensamen in Blumentöpfe von ca. 11 cm Durchmesser gesät. […] Die Töpfe werden dann im Gewächshaus unter optimalen Bedingungen für das Pflanzenwachstum, regelmässiges Bewässern, einer Temperatur von 22-25°C und 50-70% relativer Luftfeuchtigkeit gehalten. Der Versuch wird nach 3 Wochen abgebrochen und der Zustand der Pflanzen gemäss dem folgenden EWRC (European Weed Research Councel) Bewertungsschema registriert: • 1 Pflanze abgestorben • 2-4 schwere Schädigung • 5, 6 mittlere Schäden • 7, 8 leichte Schäden • 9 Pflanze gedeiht normal, wie unbehandelte Kontrollpflanze.

Weizen = assay: as above; set-up: key: 1 Pflanze abgestorben; 2-4 schwere Schädigung; 3: 2-4 schwere Schädigung; 2-4 schwere Schädigung; 5, 6 mittlere Schäden; 5, 6 mittlere Schäden; 7, 8 leichte Schäden; 7, 8 leichte Schäden; 9 Pflanze gedeiht normal, wie unbehandelte Kontrollpflanze; conditions: after 3 weeks
Description: as §1

abutilon sp = assay: as above; set-up: key: 1 Pflanze abgestorben; 2-4 schwere Schädigung; 3: 2-4 schwere Schädigung; 2-4 schwere Schädigung; 5, 6 mittlere Schäden; 5, 6 mittlere Schäden; 7, 8 leichte Schäden; 7, 8 leichte Schäden; 9 Pflanze gedeiht normal, wie unbehandelte Kontrollpflanze; conditions: after 3 weeks
Description: as §1

amarantus retrofl. = assay: as above; set-up: key: 1 Pflanze abgestorben; 2-4 schwere Schädigung; 3: 2-4 schwere Schädigung; 2-4 schwere Schädigung; 5, 6 mittlere Schäden; 5, 6 mittlere Schäden; 7, 8 leichte Schäden; 7, 8 leichte Schäden; 9 Pflanze gedeiht normal, wie unbehandelte Kontrollpflanze; conditions: after 3 weeks
Description: as §1

beta vulgaris = assay: as above; set-up: key: 1 Pflanze abgestorben; 2-4 schwere Schädigung; 3: 2-4 schwere Schädigung; 2-4 schwere Schädigung; 5, 6 mittlere Schäden; 5, 6 mittlere Schäden; 7, 8 leichte Schäden; 7, 8 leichte Schäden; 9 Pflanze gedeiht normal, wie unbehandelte Kontrollpflanze; conditions: after 3 weeks
Description: as §1

chenopodium sp. = assay: as above; set-up: key: 1 Pflanze abgestorben; 2-4 schwere Schädigung; 3: 2-4 schwere Schädigung; 2-4 schwere Schädigung; 5, 6 mittlere Schäden; 5, 6 mittlere Schäden; 7, 8 leichte Schäden; 7, 8 leichte Schäden; 9 Pflanze gedeiht normal, wie unbehandelte Kontrollpflanze; conditions: after 3 weeks
Description: as §1

chrysanthemum l. = assay: as above; set-up: key: 1 Pflanze abgestorben; 2-4 schwere Schädigung; 3: 2-4 schwere Schädigung; 2-4 schwere Schädigung; 5, 6 mittlere Schäden; 5, 6 mittlere Schäden; 7, 8 leichte Schäden; 7, 8 leichte Schäden; 9 Pflanze gedeiht normal, wie unbehandelte Kontrollpflanze; conditions: after 3 weeks
Description: as §1

sinapis alba = assay: as above; set-up: key: 1 Pflanze abgestorben; 2-4 schwere Schädigung; 3: 2-4 schwere Schädigung; 2-4 schwere Schädigung; 5, 6 mittlere Schäden; 5, 6 mittlere Schäden; 7, 8 leichte Schäden; 7, 8 leichte Schäden; 9 Pflanze gedeiht normal, wie unbehandelte Kontrollpflanze; conditions: after 3 weeks
Description: as §1

viola tricolor = assay: as above; set-up: key: 1 Pflanze abgestorben; 2-4 schwere Schädigung; 3: 2-4 schwere Schädigung; 2-4 schwere Schädigung; 5, 6 mittlere Schäden; 5, 6 mittlere Schäden; 7, 8 leichte Schäden; 7, 8 leichte Schäden; 9 Pflanze gedeiht normal, wie unbehandelte Kontrollpflanze; conditions: after 3 weeks
Description: as §1

[1] = system: Baumwollpflanzen der Sorte Deltapine; assay: Desiccation and defoliation action on cotton; conditions: Aufwandmenge 0,6 kg/ha, nach 14 Tagen; only a few dried-up leaves left on the plant
Description: Im Gewächshaus wurden Baumwollpflanzen der Sorte Deltapine in Tontöpfen angezogen. Nach abgeschlossener Kapselbildung wurden sie mit wässrigen Zubereitungen der Wirkstoffe in einer Aufwandmenge, die 1,2, 0,6 und 0,3 kg/ha im Feld entspräche, gespritzt. Unbehandelte Pflanzen wurden als Kontrolle belassen. Die Auswertung des Versuches erfolgte 3, 7 und 14 Tage nach Applikation der Versuchssubstanz durch Bestimmen des Grades an Defoliation (% abgefallene Blätter) und an Dessikation (% Austrocknung der an der Pflanze verbleibenden Blätter).

| Compound | Zustand der Pflanzen (EWRC Bewertungsschema) (Reis; Aufwandmenge 2 kg/ha) | Zustand der Pflanzen (EWRC Bewertungsschema) (Reis; Aufwandmenge 4 kg/ha) | Zustand der Pflanzen (EWRC Bewertungsschema) (Weizen; Aufwandmenge 2 kg/ha) | Zustand der Pflanzen (EWRC Bewertungsschema) (Weizen; Aufwandmenge 4 kg/ha) | Zustand der Pflanzen (EWRC Bewertungsschema) (abutilon sp; Aufwandmenge 2 kg/ha) | Zustand der Pflanzen (EWRC Bewertungsschema) (abutilon sp; Aufwandmenge 4 kg/ha) | Zustand der Pflanzen (EWRC Bewertungsschema) (amarantus retrofl.; Aufwandmenge 2 kg/ha) | Zustand der Pflanzen (EWRC Bewertungsschema) (amarantus retrofl.; Aufwandmenge 4 kg/ha) | Zustand der Pflanzen (EWRC Bewertungsschema) (beta vulgaris; Aufwandmenge 2 kg/ha) | Zustand der Pflanzen (EWRC Bewertungsschema) (beta vulgaris; Aufwandmenge 4 kg/ha) | Zustand der Pflanzen (EWRC Bewertungsschema) (chenopodium sp.; Aufwandmenge 2 kg/ha) | Zustand der Pflanzen (EWRC Bewertungsschema) (chenopodium sp.; Aufwandmenge 4 kg/ha) | Zustand der Pflanzen (EWRC Bewertungsschema) (chrysanthemum l.; Aufwandmenge 2 kg/ha) | Zustand der Pflanzen (EWRC Bewertungsschema) (chrysanthemum l.; Aufwandmenge 4 kg/ha) | Zustand der Pflanzen (EWRC Bewertungsschema) (sinapis alba; Aufwandmenge 2 kg/ha) | Zustand der Pflanzen (EWRC Bewertungsschema) (sinapis alba; Aufwandmenge 4 kg/ha) | Zustand der Pflanzen (EWRC Bewertungsschema) (viola tricolor; Aufwandmenge 2 kg/ha) | Zustand der Pflanzen (EWRC Bewertungsschema) (viola tricolor; Aufwandmenge 4 kg/ha) | Wirkung (Defoliation und Dessikation) [1] |
| --- | --- | --- | --- | --- | --- | --- | --- | --- | --- | --- | --- | --- | --- | --- | --- | --- | --- | --- | --- |
| COC(=O)CC(=O)C(C)Oc1cc(Oc2ccc(C(F)(F)F)cc2Cl)ccc1Cl (centres unmarked) [compound 3, 4-[3'-(2"-Chlor-4"-trifluormethylphenoxy)-6'-chlorphen-oxy]-propanoylessigsäure-methylester] | 7 | 6 | 9 | 9 | 6 | 6 | 1 | 1 | 1 | 1 | 1 | 1 | 1 | 1 | 2 | 1 | 3 | 1 | 90% |
| CC(CCC(=O)O)Oc1cc(Oc2ccc(C(F)(F)F)cc2Cl)ccc1Cl (centres unmarked) [compound 6] | 8 | 8 | 9 | 9 | 2 | 1 | 1 | 1 | 1 | 1 | 1 | 1 | 2 | 1 | 1 | 1 | 1 | 1 | – |
| CCNC(=O)CCC(C)Oc1cc(Oc2ccc(C(F)(F)F)cc2Cl)ccc1Cl (centres unmarked) [compound 7] | 8 | 8 | 9 | 9 | 1 | 1 | 1 | 1 | 1 | 1 | 1 | 1 | 2 | 1 | 1 | 1 | 2 | 1 | 90% |
| CCOC(=O)C=CC(C)Oc1cc(Oc2ccc(C(F)(F)F)cc2Br)ccc1Cl (centres unmarked) [compound 15] | 9 | 9 | 9 | 9 | 6 | 2 | 1 | 1 | 2 | 2 | 1 | 1 | 2 | 1 | 4 | 1 | 2 | 1 | – |
